Results as given in the CheMixHub viscosity set.
± gives the uncertainty stated by the source.

Assay: xn = mol fraction of the nth substance listed

ClCCl + CO
303.15 K, 101.3 kPa
Conditions	viscosity [mPa·s]
x1 = 0.0146	0.5071 ± 0.013
x2 = 0.0752	0.3905 ± 0.01
x2 = 0.1326	0.3907 ± 0.01
x2 = 0.1509	0.3917 ± 0.01
x2 = 0.2315	0.3988 ± 0.011
x2 = 0.3029	0.4078 ± 0.011
x2 = 0.374	0.42 ± 0.011
x2 = 0.407	0.4262 ± 0.011
x2 = 0.5161	0.4475 ± 0.012
x2 = 0.6525	0.4738 ± 0.013
x2 = 0.7656	0.4932 ± 0.013
x2 = 0.8581	0.5043 ± 0.013
x2 = 0.9182	0.5081 ± 0.013
x2 = 0.9595	0.5087 ± 0.013

ClCCl + COC(=O)OC
viscosity [mPa·s], 101.33 kPa
Conditions	x2 = 0.0957	x2 = 0.2018	x2 = 0.3029	x2 = 0.3958	x2 = 0.5009	x2 = 0.5996	x2 = 0.6992	x2 = 0.7599	x2 = 0.9005
298.15 K	0.4 ± 0.012	0.423 ± 0.012	0.441 ± 0.013	0.458 ± 0.013	0.472 ± 0.014	0.485 ± 0.014	0.495 ± 0.014	0.5 ± 0.014	0.52 ± 0.015
303.15 K	0.384 ± 0.011	0.4 ± 0.012	0.419 ± 0.012	0.431 ± 0.013	0.447 ± 0.013	0.461 ± 0.013	0.47 ± 0.014	0.478 ± 0.014	0.49 ± 0.014
308.15 K	0.374 ± 0.011	0.385 ± 0.011	0.399 ± 0.012	0.409 ± 0.012	0.42 ± 0.012	0.43 ± 0.013	0.44 ± 0.013	0.448 ± 0.013	0.461 ± 0.014

ClCCl + COC(C)=O
298.15 K, 101 kPa
Conditions	viscosity [mPa·s]
x1 = 0.1033	0.374 ± 0.011
x1 = 0.1903	0.383 ± 0.011
x1 = 0.2995	0.391 ± 0.011
x1 = 0.4016	0.398 ± 0.011
x1 = 0.5007	0.404 ± 0.011
x1 = 0.5991	0.41 ± 0.011
x1 = 0.7017	0.414 ± 0.011
x1 = 0.8034	0.416 ± 0.011
x1 = 0.9104	0.418 ± 0.011

ClCCCl + COCCO
298 K, 101.33 kPa
Conditions	viscosity [mPa·s]
x2 = 0.1031	0.803 ± 0.011
x2 = 0.1362	0.811 ± 0.011
x2 = 0.2067	0.83 ± 0.011
x2 = 0.2908	0.882 ± 0.012
x2 = 0.395	0.954 ± 0.012
x2 = 0.5147	1.059 ± 0.014
x2 = 0.5965	1.138 ± 0.014
x2 = 0.6926	1.232 ± 0.015
x2 = 0.7409	1.28 ± 0.016
x2 = 0.9141	1.458 ± 0.018

ClCCl + COCCO
298.15 K, 101 kPa
Conditions	viscosity [mPa·s]
x2 = 0.1103	0.5177 ± 0.014
x2 = 0.2181	0.5832 ± 0.016
x2 = 0.3235	0.6707 ± 0.018
x2 = 0.4266	0.7669 ± 0.02
x2 = 0.5274	0.8908 ± 0.023
x2 = 0.626	1.029 ± 0.025
x2 = 0.7225	1.168 ± 0.029
x2 = 0.817	1.295 ± 0.032
x2 = 0.9095	1.428 ± 0.034

ClCCl + COCCOCCOC
298.15 K, 101.33 kPa
Conditions	viscosity [mPa·s]
x2 = 0.097	0.546 ± 0.007
x2 = 0.1505	0.593 ± 0.007
x2 = 0.2008	0.636 ± 0.007
x2 = 0.2942	0.711 ± 0.007
x2 = 0.3997	0.79 ± 0.008
x2 = 0.4508	0.817 ± 0.008
x2 = 0.5008	0.843 ± 0.008
x2 = 0.5555	0.87 ± 0.008
x2 = 0.598	0.891 ± 0.008
x2 = 0.6948	0.921 ± 0.009
x2 = 0.7543	0.938 ± 0.009
x2 = 0.8003	0.955 ± 0.009
x2 = 0.8967	0.975 ± 0.009
x2 = 0.9205	0.98 ± 0.009

ClCCl + COCCOCCOCCOCCOC
298.15 K, 101 kPa
Conditions	viscosity [mPa·s]
x2 = 0.017	0.459 ± 0.004
x2 = 0.0332	0.51 ± 0.005
x2 = 0.0557	0.586 ± 0.005
x2 = 0.0844	0.681 ± 0.006
x2 = 0.1417	0.909 ± 0.007
x2 = 0.1831	1.075 ± 0.009
x2 = 0.236	1.294 ± 0.012
x2 = 0.2842	1.492 ± 0.015
x2 = 0.292	1.519 ± 0.016
x2 = 0.3401	1.699 ± 0.019
x2 = 0.38	1.848 ± 0.022
x2 = 0.4698	2.155 ± 0.03
x2 = 0.5134	2.334 ± 0.034
x2 = 0.6018	2.651 ± 0.044
x2 = 0.6882	2.749 ± 0.051
x2 = 0.7367	2.865 ± 0.056
x2 = 0.8029	2.981 ± 0.063
x2 = 0.8758	3.111 ± 0.071
x2 = 0.9066	3.17 ± 0.074
x2 = 0.9339	3.239 ± 0.078
